The source of these data is patent US20250388756A1, “NOVEL FLUORESCENT COMPOUND, AND LIPID BILAYER DYEING METHOD AND ENDOCYTOSIS DETECTION METHOD USING SAID COMPOUND” (DOJINDO LABORATORIES, priority 2020, published 2025).

The subject of series [1] is HeLa cells. Kind of series: Cell staining test (confocal laser microscope). As to conditions: FIG. 8. The series is classed as cell-based. On the procedure:
HeLa cells were seeded onto μ-slide 8 well plates (ibidi) and cultured overnight in an incubator (37° C., 5% CO2, MEM medium (containing 10% fetal bovine serum and 1% penicillin/streptomycin)).

Series [2] can be described thus: Effect of pH on fluorescence intensity. It is filed as physicochemical. As to conditions: 1 μmol/L in 1:1 mixture of buffer (pH 7.4, 6.5, 4) and DMSO; FIG. 7. The protocol:
Compound (3) was added to a 1:1 mixture of PBS (pH 7.4), Tris-HCl buffer (pH 6.5), phthalate buffer (pH 4) and DMSO to a final concentration of 1 μmol/L and the fluorescence spectrum was measured.

Series [3] has as its system HeLa cells. Kind of series: Endosome staining test (confocal laser microscope). The series is classed as cell-based. As to conditions: endosomes enlarged by wortmannin 100 nM, 30 minutes at 37° C., FIG. 9. On the procedure:
HeLa cells were seeded on μ-slide 8 well plates (ibidi) and cultured overnight in an incubator (37° C., 5% CO2 presence, MEM medium (containing 10% fetal bovine serum and 1% penicillin/streptomycin)). The medium was removed and wortmannin (100 nM: a PI-3 kinase inhibitor that hypertrophies early endosomes) diluted in MEM medium Various fluorescent compounds (Compound (3), pHrodo Dex (Thermofisher), FM1-43 (Molecular Probe)) diluted with MEM medium were added and incubated for 30 minutes at 37° C. The supernatant was removed, and the cells were incubated at 37° C. for 30 minutes. The supernatant was removed, replaced with MEM medium and observed with a confocal laser microscope. In addition, instead of adding fluorescent compounds, the same experiment was performed using HeLa cells expressing Rab5-RFP (cDNA encoding a fusion protein in which a fluorescent protein is fused to an endosomal membrane-specific protein) before addition of wortmannin. The same experiments were also performed on the control group (CTRL) without adding wortmannin.

With `O=C1c2ccc3c4cccc5cccc(c6ccc(c2c36)C(=O)N1CCCS(=O)(=O)O)c54` [Compound (1)], the “localisation of fluorescent compound after leaving overnight (retention in cell membrane)” value in series [1] is “remained in the cell membrane”.
Still for that read-out and setting: the result for `CCCCCN1C(=O)c2ccc3c4cccc5c(N6CCN(CCCS(=O)(=O)O)CC6)ccc(c6ccc(c2c36)C1=O)c54` [Compound (2)] reads “remained in the cell membrane”.
Turning to `CCCCCN1C(=O)c2cccc3c(N4CCN(CCCS(=O)(=O)O)CC4)ccc(c23)C1=O` [Compound (3)], in series [2], the “change of fluorescence intensity with pH” value was “marked increase in fluorescence intensity was observed with decreasing pH”. For the same compound, the “staining of endosomes (membrane versus contents)” value in series [3] is reported as “only the endosomal membrane was specifically stained”.
